Laboratory results: US20250352520A1, “USE OF DEXPRAMIPEXOLE FOR THE TREATMENT OF EOSINOPHILIC COPD” (Areteia Therapeutics, Inc., priority 2024, published 2025)

Method: Participants performed post-BD spirometry at specific visits as noted in the SOA.
After completing the pre-BD spirometry, participants inhaled four puffs of albuterol/salbutamol (site sourced) metered dose inhaler (approximately 100 μg albuterol/salbutamol base per actuation), with each actuation 1 minute apart. Post-BD spirometry was assessed within 15 to 30 minutes after inhalation of albuterol/salbutamol.

[1] = AECR≥0.5 patients, after 16 weeks
[2] = Week 16, <50% AEC reduction at Week 16
[3] = Week 16, <50% AEC reduction at Week 16 (N = 4), 150 mg BID

## CCCN[C@@H]1CCc2nc(N)sc2C1 [Dexpramipexole, (6R)-2-amino-4,5,6,7-tetrahydro-6-(propylamino)benzothiazole]
[1]
  Post-BD FEV1, absolute increase: 220 mL
  Post-BD FEV1, improvement compared to baseline: 16.6%
AECR≥0.5 patients, week 16
  Post-BD FEF25-75, absolute increase: 130 mL
  Post-BD FEF25-75, average increase compared to baseline: 26.7%
  Post-BD FVC, absolute increase: 226.7 mL
  Post-BD FVC, average increase compared to baseline: 9.2%
  Post-BD Peak Flow, average improvement compared to baseline: 40.2%
[2]
  Post-BD FEV1 % change from baseline, Max: 19%
  Post-BD FEV1 % change from baseline, Mean ± SD: −0.1± 21.10%
  Post-BD FEV1 % change from baseline, Median: 4.8%
  Post-BD FEV1 % change from baseline, Min: −29%
  Post-BD FEV1 % change from baseline, Q1: −15%
  Post-BD FEV1 % change from baseline, Q3: 15%
  Post-BD FEV1 Observed, Max: 1950 mL
  Post-BD FEV1 Observed, Mean ± SD: 1522.5 ± 546.34 mL
  Post-BD FEV1 Observed, Median: 1705.0 mL
  Post-BD FEV1 Observed, Min: 730 mL
  Post-BD FEV1 Observed, Q1: 1170 mL
  Post-BD FEV1 Observed, Q3: 1875 mL
  Post-BD FEV1 change from baseline, Max: 290 mL
  Post-BD FEV1 change from baseline, Mean ± SD: 40.0 ± 260.90 mL
  Post-BD FEV1 change from baseline, Median: 85.0 mL
  Post-BD FEV1 change from baseline, Min: -300 mL
  Post-BD FEV1 change from baseline, Q1: -160 mL
  Post-BD FEV1 change from baseline, Q3: 240 mL
[3]
  Post bronchodilator Forced Expiratory Flow 25-75% (FEF25-75), % CFB (Percent change from baseline), Max: 54%
  Post bronchodilator Forced Expiratory Flow 25-75% (FEF25-75), % CFB (Percent change from baseline), Mean ± SD: 9.7 ± 40.69%
  Post bronchodilator Forced Expiratory Flow 25-75% (FEF25-75), % CFB (Percent change from baseline), Median: 7.3%
  Post bronchodilator Forced Expiratory Flow 25-75% (FEF25-75), % CFB (Percent change from baseline), Min: −29%
  Post bronchodilator Forced Expiratory Flow 25-75% (FEF25-75), % CFB (Percent change from baseline), Q1: −25%
  Post bronchodilator Forced Expiratory Flow 25-75% (FEF25-75), % CFB (Percent change from baseline), Q3: 44%
  Post bronchodilator Forced Expiratory Flow 25-75% (FEF25-75), CFB (Change from baseline), Max: 290 mL/s
  Post bronchodilator Forced Expiratory Flow 25-75% (FEF25-75), CFB (Change from baseline), Mean ± SD: 90.0 ± 225.24 mL/s
  Post bronchodilator Forced Expiratory Flow 25-75% (FEF25-75), CFB (Change from baseline), Median: 90.0 mL/s
  Post bronchodilator Forced Expiratory Flow 25-75% (FEF25-75), CFB (Change from baseline), Min: -110 mL/s
  Post bronchodilator Forced Expiratory Flow 25-75% (FEF25-75), CFB (Change from baseline), Q1: -105 mL/s
  Post bronchodilator Forced Expiratory Flow 25-75% (FEF25-75), CFB (Change from baseline), Q3: 285 mL/s
  Post bronchodilator Forced Expiratory Flow 25-75% (FEF25-75), Observed, Max: 1090 mL/s
  Post bronchodilator Forced Expiratory Flow 25-75% (FEF25-75), Observed, Mean ± SD: 650.0 ± 382.19 mL/s
  Post bronchodilator Forced Expiratory Flow 25-75% (FEF25-75), Observed, Median: 635.0 mL/s
  Post bronchodilator Forced Expiratory Flow 25-75% (FEF25-75), Observed, Min: 240 mL/s
  Post bronchodilator Forced Expiratory Flow 25-75% (FEF25-75), Observed, Q1: 340 mL/s
  Post bronchodilator Forced Expiratory Flow 25-75% (FEF25-75), Observed, Q3: 960 mL/s
  Post bronchodilator Forced Vital Capacity (FVC), % CFB (Percent change from baseline), Max: 18%
  Post bronchodilator Forced Vital Capacity (FVC), % CFB (Percent change from baseline), Mean ± SD: 3.0 ± 14.06%
  Post bronchodilator Forced Vital Capacity (FVC), % CFB (Percent change from baseline), Median: 4.6%
  Post bronchodilator Forced Vital Capacity (FVC), % CFB (Percent change from baseline), Min: −16%
  Post bronchodilator Forced Vital Capacity (FVC), % CFB (Percent change from baseline), Q1: −6%
  Post bronchodilator Forced Vital Capacity (FVC), % CFB (Percent change from baseline), Q3: 12%
  Post bronchodilator Forced Vital Capacity (FVC), CFB (Change from baseline), Max: 450 mL
  Post bronchodilator Forced Vital Capacity (FVC), CFB (Change from baseline), Mean ± SD: 70.0 ± 388.16 mL
  Post bronchodilator Forced Vital Capacity (FVC), CFB (Change from baseline), Median: 150.0 mL
  Post bronchodilator Forced Vital Capacity (FVC), CFB (Change from baseline), Min: -470 mL
  Post bronchodilator Forced Vital Capacity (FVC), CFB (Change from baseline), Q1: -180 mL
  Post bronchodilator Forced Vital Capacity (FVC), CFB (Change from baseline), Q3: 320 mL
  Post bronchodilator Forced Vital Capacity (FVC), Observed, Max: 3460 mL
  Post bronchodilator Forced Vital Capacity (FVC), Observed, Mean ± SD: 3082.5 ± 447.84 mL
  Post bronchodilator Forced Vital Capacity (FVC), Observed, Median: 3165.0 mL
  Post bronchodilator Forced Vital Capacity (FVC), Observed, Min: 2540 mL
  Post bronchodilator Forced Vital Capacity (FVC), Observed, Q1: 2715 mL
  Post bronchodilator Forced Vital Capacity (FVC), Observed, Q3: 3450 mL
  Post bronchodilator Peak Flow, % CFB (Percent change from baseline), Max: 42%
  Post bronchodilator Peak Flow, % CFB (Percent change from baseline), Mean ± SD: 16.9 ± 28.64%
  Post bronchodilator Peak Flow, % CFB (Percent change from baseline), Median: 18.1%
  Post bronchodilator Peak Flow, % CFB (Percent change from baseline), Min: −10%
  Post bronchodilator Peak Flow, % CFB (Percent change from baseline), Q1: −8%
  Post bronchodilator Peak Flow, % CFB (Percent change from baseline), Q3: 42%
  Post bronchodilator Peak Flow, CFB (Change from baseline), Max: 150 L/min
  Post bronchodilator Peak Flow, CFB (Change from baseline), Mean ± SD: 51.5 ± 88.04 L/min
  Post bronchodilator Peak Flow, CFB (Change from baseline), Median: 46.0 L/min
  Post bronchodilator Peak Flow, CFB (Change from baseline), Min: -36 L/min
  Post bronchodilator Peak Flow, CFB (Change from baseline), Q1: -22 L/min
  Post bronchodilator Peak Flow, CFB (Change from baseline), Q3: 125 L/min
  Post bronchodilator Peak Flow, Observed, Max: 509 L/min
  Post bronchodilator Peak Flow, Observed, Mean ± SD: 326.0 ± 148.82 L/min
  Post bronchodilator Peak Flow, Observed, Median: 324.5 L/min
